The text below walks through data of patent publication US20230131899A1, “INHIBITORS OF MICROBIALLY INDUCED AMYLOID” (Axial Therapeutics, Inc., priority 2020, published 2023).

This experiment concerns the target T1, human α-synuclein (Homo sapiens, UniProt P37840).
T1 construct: the full-length gene for untagged human α-synuclein was inserted; made in house; host or cells: E. coli BL21(DE3), plasmid derived from pT7 or pET11a
The experiment in a line: Cell-free Thioflavin T assay of α-synuclein aggregation (αSyn ThT Assay). It counts as biochemical. Conditions: αSyn 50 μM. The method, boiled down: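 Inhibition is reported as 100% minus background-corrected ThT signal relative to vehicle wells, taken at 36, 47, 48 or 72 h or the last read. Reactions held 50 μM recombinant α-synuclein, 20-100 μM compound, 20-40 μM ThT and 1% DMSO. Incubation was at 37° C., shaken, with a glass bead.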

Where [1] appears, read: mean % inhibition of αSyn aggregation relative to DMSO control, compounds at 100 μM, read-out: αSyn ThT Assay % Inhibition.
[2] abbreviates: compounds at 100 μM, class symbol, read-out: αSyn ThT Assay % Inhibition (activity range).
Setting [3] is: class symbol, compounds 100 μM, read-out: αSyn ThT Assay % inhibition, activity range.
Where [4] appears, read: mean percent inhibition relative to DMSO control, compounds 100 μM, read-out: αSyn ThT Assay % inhibition.

Where two headings read alike, the source gives them in different places.

In the case of `Cn1c(=O)c2c(ncn2CCCCCN2CC(C(=O)O)n3c(c(-c4cccc(C(F)(F)F)c4)c(Cc4cccc5ccccc45)cc3=O)S2(=O)=O)n(C)c1=O` (centres unmarked) [Compound 034, 2-(5-(1,3-dimethyl-2,6-dioxo-1,2,3,6-tetrahydro-7H-purin-7-yl)pentyl)-8-(naphthalen-1-ylmethyl)-6-oxo-9-(3-(trifluoromethyl)phenyl)-3,4-dihydro-2H,6H-pyrido[1,2-e][1,2,5]thiadiazine-4-carboxylic acid 1,1-dioxide], the inhibition at 100 µM was 5% under setting [1] and -10 to 10% under setting [2].

As for `CC(C)(C)c1ccc(Cc2c(-c3cccc(C(F)(F)F)c3)c3n(c(=O)c2Cl)C(C(=O)O)CN3Cc2ccccc2)cc1` (centres unmarked) [Compound 216, 1-benzyl-7-(4-(tert-butyl)benzyl)-6-chloro-5-oxo-8-(3-(trifluoromethyl)phenyl)-1,2,3,5-tetrahydroimidazo[1,2-a]pyridine-3-carboxylic acid], the inhibition at 100 µM is, setting by setting: under setting [3], 31 to 60%; under setting [4], 46%.

Consider `CCc1c(Cc2cccc3ccccc23)c(-c2cccc(C(F)(F)F)c2)c2n(c1=O)C(C(=O)O)CN2Cc1ccccc1` (centres unmarked) [Compound 140, 1-benzyl-6-ethyl-7-(naphthalen-1-ylmethyl)-5-oxo-8-(3-(trifluoromethyl)phenyl)-1,2,3,5-tetrahydroimidazo[1,2-a]pyridine-3-carboxylic acid], for which the inhibition at 100 µM is, setting by setting: under setting [3], 31 to 60%; under setting [4], 48%.

As for `O=C(O)C1CN(CCCO)S(=O)(=O)c2c(-c3cccc(C(F)(F)F)c3)c(Cc3cccc4ccccc34)cc(=O)n21` (centres unmarked) [Compound 056, 2-(3-hydroxypropyl)-8-(naphthalen-1-ylmethyl)-6-oxo-9-(3-(trifluoromethyl)phenyl)-3,4-dihydro-2H,6H-pyrido[1,2-e][1,2,5]thiadiazine-4-carboxylic acid 1,1-dioxide], the inhibition at 100 µM by setting is: under setting [1], 59%; under setting [2], 31 to 60%.

Regarding `CC(C)CN1CC(C(=O)O)n2c1c(-c1cccc(C(F)(F)F)c1)c(Cc1cccc3ccccc13)c(Cl)c2=O` (centres unmarked) [Compound 164, 6-chloro-1-isobutyl-7-(naphthalen-1-ylmethyl)-5-oxo-8-(3-(trifluoromethyl)phenyl)-1,2,3,5-tetrahydroimidazo[1,2-a]pyridine-3-carboxylic acid], the inhibition at 100 µM runs as follows: under setting [3], 31 to 60%; under setting [4], 43%.

Consider `COc1ccc(CN2CC(C(=O)O)n3c2c(-c2cccc(C(F)(F)F)c2)c(Cc2cccc4ccccc24)c(Cl)c3=O)cc1` (centres unmarked) [Compound 192, 6-chloro-1-(4-methoxybenzyl)-7-(naphthalen-1-ylmethyl)-5-oxo-8-(3-(trifluoromethyl)phenyl)-1,2,3,5-tetrahydroimidazo[1,2-a]pyridine-3-carboxylic acid], for which the inhibition at 100 µM is, setting by setting: under setting [3], 31 to 60%; under setting [4], 59%.

For `O=C(O)c1c(CCc2ccccc2)sc2c(-c3cccc(C(F)(F)F)c3)c(Cc3cccc4ccccc34)cc(=O)n12` [Compound 062, 7-(naphthalen-1-ylmethyl)-5-oxo-2-phenethyl-8-(3-(trifluoromethyl)phenyl)-5H-thiazolo[3,2-a]pyridine-3-carboxylic acid], the inhibition at 100 µM by setting is: under setting [1], 87%; under setting [2], above 60%.

As to `Nc1c(Cc2ccc(N)c3ccccc23)c(-c2cccc(C(F)(F)F)c2)c2n(c1=O)C(C(=O)O)CNS2(=O)=O` (centres unmarked) [Compound 041], the inhibition at 100 µM runs as follows: under setting [1], 25%; under setting [2], 11 to 30%.

For the compound `CN1CC(C(=O)O)n2c(c(-c3cccc(C(F)(F)F)c3)c(Cc3cccc4ccccc34)c(NCc3ccccc3)c2=O)S1(=O)=O` (centres unmarked) [Compound 071], the inhibition at 100 µM was 38% under setting [1] and 31 to 60% under setting [2].

With `CN(C)C(=O)C1CN(C)S(=O)(=O)c2c(-c3cccc(C(F)(F)F)c3)c(Cc3cccc4ccccc34)cc(=O)n21` (centres unmarked) [Compound 032, N,N-2-trimethyl-8-(naphthalen-1-ylmethyl)-6-oxo-9-(3-(trifluoromethyl)phenyl)-3,4-dihydro-2H,6H-pyrido[1,2-e][1,2,5]thiadiazine-4-carboxamide 1,1-dioxide], the inhibition at 100 µM under setting [1] is 8% and the inhibition at 100 µM under setting [2] was -10 to 10%.

Regarding `O=C(O)C1CN(Cc2ccc(-c3ccccc3)cc2)c2c(-c3cccc(C(F)(F)F)c3)c(Cc3cccc4ccccc34)c(Cl)c(=O)n21` (centres unmarked) [Compound 202, 1-([1,1′-biphenyl]-4-ylmethyl)-6-chloro-7-(naphthalen-1-ylmethyl)-5-oxo-8-(3-(trifluoromethyl)phenyl)-1,2,3,5-tetrahydroimidazo[1,2-a]pyridine-3-carboxylic acid], the inhibition at 100 µM was 31 to 60% under setting [3] and 54% under setting [4].

On to `O=C(O)C1CN(Cc2ccccc2)c2c(-c3cccc(C(F)(F)F)c3)c(C(F)(F)c3cccc4ccccc34)c(Br)c(=O)n21` (centres unmarked) [Compound 155, 1-benzyl-6-bromo-7-(difluoro(naphthalen-1-yl)methyl)-5-oxo-8-(3-(trifluoromethyl)phenyl)-1,2,3,5-tetrahydroimidazo[1,2-a]pyridine-3-carboxylic acid], for which the inhibition at 100 µM is, setting by setting: under setting [3], 31 to 60%; under setting [4], 60%.

As to `O=C(O)C1CN(C[C@H](O)[C@@H](O)[C@H](O)[C@H](O)CO)S(=O)(=O)c2c(-c3cccc(C(F)(F)F)c3)c(Cc3cccc4ccccc34)cc(=O)n21` (mixture of isomers) [Compound 066, 8-(naphthalen-1-ylmethyl)-6-oxo-2-((2S,3R,4R,5R)-2,3,4,5,6-pentahydroxyhexyl)-9-(3-(trifluoromethyl)phenyl)-3,4-dihydro-2H,6H-pyrido[1,2-e][1,2,5]thiadiazine-4-carboxylic acid 1,1-dioxide], the inhibition at 100 µM is 13% under setting [1] and 11 to 30% under setting [2].

Regarding `O=C(O)C1CN(Cc2ccc(CO)cc2)c2c(-c3cccc(C(F)(F)F)c3)c(Cc3cccc4ccccc34)c(Cl)c(=O)n21` (centres unmarked) [Compound 170, 6-chloro-1-(4-(hydroxymethyl)benzyl)-7-(naphthalen-1-ylmethyl)-5-oxo-8-(3-(trifluoromethyl)phenyl)-1,2,3,5-tetrahydroimidazo[1,2-a]pyridine-3-carboxylic acid], the inhibition at 100 µM under setting [3] lay in the range of 11 to 30% and the inhibition at 100 µM under setting [4] came to 30%.

Regarding `O=C(O)C1CN(Cc2ccccc2CO)c2c(-c3cccc(C(F)(F)F)c3)c(Cc3cccc4ccccc34)c(Cl)c(=O)n21` (centres unmarked) [Compound 181, 6-chloro-1-(2-(hydroxymethyl)benzyl)-7-(naphthalen-1-ylmethyl)-5-oxo-8-(3-(trifluoromethyl)phenyl)-1,2,3,5-tetrahydroimidazo[1,2-a]pyridine-3-carboxylic acid], the inhibition at 100 µM is 31 to 60% under setting [3] and 31% under setting [4].

As for `O=C(O)C1CN(Cc2ccccc2)c2c(-c3cccc(C(F)(F)F)c3)c(Cc3cccc4ccccc34)c(Cl)c(=O)n21` (centres unmarked) [Compound 004, 1-benzyl-6-chloro-7-(naphthalen-1-ylmethyl)-5-oxo-8-(3-(trifluoromethyl)phenyl)-1,2,3,5-tetrahydroimidazo[1,2-a]pyridine-3-carboxylic acid], the inhibition at 100 µM under setting [3] was in the range of 31 to 60% and the inhibition at 100 µM under setting [4] is 55%.

As to `O=C(O)C1CSc2c(-c3cccc(C(F)(F)F)c3)c(C(F)(F)c3cccc4ccccc34)cc(=O)n21` (centres unmarked) [Compound 073, 7-(difluoro(naphthalen-1-yl)methyl)-5-oxo-8-(3-(trifluoromethyl)phenyl)-2,3-dihydro-5H-thiazolo[3,2-a]pyridine-3-carboxylic acid], the inhibition at 100 µM was 76% under setting [1] and above 60% under setting [2].

With `O=C(O)C1CN(CC2CCCC2)c2c(-c3cccc(C(F)(F)F)c3)c(Cc3cccc4ccccc34)c(Cl)c(=O)n21` (centres unmarked) [Compound 167, 6-chloro-1-(cyclopentylmethyl)-7-(naphthalen-1-ylmethyl)-5-oxo-8-(3-(trifluoromethyl)phenyl)-1,2,3,5-tetrahydroimidazo[1,2-a]pyridine-3-carboxylic acid], the inhibition at 100 µM reads like this: under setting [3], 31 to 60%; under setting [4], 45%.

On to `O=C(O)C1CN(Cc2ccccc2)c2c(-c3cccc(Br)c3)c(Cc3cccc4ccccc34)c(Cl)c(=O)n21` (centres unmarked) [Compound 198, 1-benzyl-8-(3-bromophenyl)-6-chloro-7-(naphthalen-1-ylmethyl)-5-oxo-1,2,3,5-tetrahydroimidazo[1,2-a]pyridine-3-carboxylic acid], for which the inhibition at 100 µM is, setting by setting: under setting [3], above 60%; under setting [4], 75%.

Take `CN1CC(C(=O)O)n2c(c(-c3cccc(C(F)(F)F)c3)c(Cc3cccc4ccccc34)c(C(=O)NC(C)(C)C)c2=O)S1(=O)=O` (centres unmarked) [Compound 158, 7-(tert-butylcarbamoyl)-2-methyl-8-(naphthalen-1-ylmethyl)-6-oxo-9-(3-(trifluoromethyl)phenyl)-3,4-dihydro-2H,6H-pyrido[1,2-e][1,2,5]thiadiazine-4-carboxylic acid 1,1-dioxide]: the inhibition at 100 µM is, setting by setting: under setting [3], above 60%; under setting [4], 79%.

In the case of `CCNC(=O)c1c(Cc2cccc3ccccc23)c(-c2cccc(C(F)(F)F)c2)c2n(c1=O)C(C(=O)O)CN(C)S2(=O)=O` (centres unmarked) [Compound 156, 7-(ethylcarbamoyl)-2-methyl-8-(naphthalen-1-ylmethyl)-6-oxo-9-(3-(trifluoromethyl)phenyl)-3,4-dihydro-2H,6H-pyrido[1,2-e][1,2,5] thiadiazine-4-carboxylic acid 1,1-dioxide], the inhibition at 100 µM by setting is: under setting [3], above 60%; under setting [4], 70%.

For `Cn1c(=O)c2c(ncn2CCCCCCCN2CC(C(=O)O)n3c(c(-c4cccc(C(F)(F)F)c4)c(Cc4cccc5ccccc45)cc3=O)S2(=O)=O)n(C)c1=O` (centres unmarked) [Compound 036], the inhibition at 100 µM under setting [1] is 16% and the inhibition at 100 µM under setting [2] was 11 to 30%.
